Experiment [1] concerns the target T1, ΔF508-CFTR (Homo sapiens, UniProt P13569, DEL508-508).
T1 construct: host or cells: CFBE41o-, doxycycline-inducible
In words: CFTR cell surface levels using HRP-tagged ΔF508-CFTR expressing CFBE cells, in the presence of a co-corrector. It counts as cell-based. To be noted: HRP-tagged ΔF508-CFTR expressing CFBE cells, in the presence of 3 μM co-corrector; for EC50: read-out: EC50. The method, boiled down:
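Cells were seeded with 0.5 μg/mL doxycycline and held 68 h at 37 °C. Test compounds plus 3 μM co-corrector (final 0.1% DMSO) were then added for 20 h at 33 °C. Washed cells received HRP substrate, and luminescence was normalized between DMSO and 3 μM co-corrector controls.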

Experiment [2] deals with T1, ΔF508-CFTR. In words: CFTR cell surface levels using HRP-tagged ΔF508-CFTR expressing CFBE cells, intrinsic corrector capacity. It counts as cell-based. To be noted: for EC50: read-out: EC50. In a few lines: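 Here the cells express ΔF508-CFTR with horseradish peroxidase inserted in extracellular loop 4, so only rescued channel at the surface gives luminescent signal. Compounds act on their own, 20 h at the reduced temperature of 33 °C; values are percent activity relative to DMSO and a 3 μM corrector.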

Setting [3] is: HRP-tagged ΔF508-CFTR CFBE cells, compound alone (intrinsic corrector capacity), 20 hours at 33° C.
[4] abbreviates: HRP-tagged ΔF508-CFTR CFBE41o- cells, compounds alone (intrinsic corrector capacity), 20 hours at 33° C., positive control 3 μM corrector.
[5] abbreviates: HRP-tagged ΔF508-CFTR CFBE41o- cells, compounds alone (intrinsic corrector capacity), 20 hours at 33° C.
The mark [6] stands for this setting: HRP-tagged ΔF508-CFTR expressing CFBE cells, intrinsic corrector capacity (no co-corrector), 33° C., 20 hours.

Consider 20 compounds from patent US9796711B2, “Substituted pyrazolo[3,4-b]pyridin-6-carboxylic acids and method of use” (AbbVie S.àr.l., priority 2015, dated 2017).

T1 sequence (P13569 with tags, fused parts or gaps DEL508-508): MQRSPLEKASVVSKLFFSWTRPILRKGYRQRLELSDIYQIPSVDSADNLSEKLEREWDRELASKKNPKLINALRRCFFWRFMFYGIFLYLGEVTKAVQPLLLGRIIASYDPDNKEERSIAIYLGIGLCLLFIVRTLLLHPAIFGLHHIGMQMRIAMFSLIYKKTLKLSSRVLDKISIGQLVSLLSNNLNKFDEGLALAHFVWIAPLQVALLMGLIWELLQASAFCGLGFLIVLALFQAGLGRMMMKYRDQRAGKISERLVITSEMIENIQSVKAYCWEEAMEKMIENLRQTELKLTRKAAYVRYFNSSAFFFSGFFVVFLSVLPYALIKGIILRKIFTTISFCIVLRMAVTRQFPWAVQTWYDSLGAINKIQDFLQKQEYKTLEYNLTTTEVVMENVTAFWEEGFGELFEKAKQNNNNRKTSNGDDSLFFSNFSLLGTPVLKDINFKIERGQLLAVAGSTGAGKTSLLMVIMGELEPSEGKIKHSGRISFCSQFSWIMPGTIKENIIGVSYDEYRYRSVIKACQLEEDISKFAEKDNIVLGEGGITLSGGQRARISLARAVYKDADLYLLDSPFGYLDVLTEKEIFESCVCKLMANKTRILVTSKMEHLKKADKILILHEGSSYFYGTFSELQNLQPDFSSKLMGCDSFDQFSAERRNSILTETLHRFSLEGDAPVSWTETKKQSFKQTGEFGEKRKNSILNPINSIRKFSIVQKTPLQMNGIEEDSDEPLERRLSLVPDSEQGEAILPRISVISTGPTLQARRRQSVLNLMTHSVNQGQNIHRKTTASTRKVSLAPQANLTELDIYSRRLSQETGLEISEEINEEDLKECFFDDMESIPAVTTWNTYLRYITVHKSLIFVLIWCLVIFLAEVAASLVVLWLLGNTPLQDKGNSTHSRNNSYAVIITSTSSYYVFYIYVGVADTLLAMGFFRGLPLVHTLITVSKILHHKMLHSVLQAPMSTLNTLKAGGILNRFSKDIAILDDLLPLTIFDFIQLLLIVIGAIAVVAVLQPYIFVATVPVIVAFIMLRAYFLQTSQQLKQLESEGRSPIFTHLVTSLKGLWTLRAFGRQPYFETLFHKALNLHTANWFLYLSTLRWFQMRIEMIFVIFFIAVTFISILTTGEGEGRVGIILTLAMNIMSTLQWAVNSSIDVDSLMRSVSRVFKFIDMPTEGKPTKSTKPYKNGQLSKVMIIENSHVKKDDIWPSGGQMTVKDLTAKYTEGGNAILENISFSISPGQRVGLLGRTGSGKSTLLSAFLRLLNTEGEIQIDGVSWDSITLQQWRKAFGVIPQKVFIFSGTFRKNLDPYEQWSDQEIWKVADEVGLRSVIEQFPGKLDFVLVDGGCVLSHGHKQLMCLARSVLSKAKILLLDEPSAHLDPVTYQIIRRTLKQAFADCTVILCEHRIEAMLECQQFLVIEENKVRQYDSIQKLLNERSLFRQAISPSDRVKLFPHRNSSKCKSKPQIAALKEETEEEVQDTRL

Regarding `COc1cc(F)cc(-n2nc(C3CCC3)c3c(N4CCC(N5CCOCC5)CC4)cc(C(=O)O)nc32)c1` [compound 913, 3-cyclobutyl-1-(3-fluoro-5-methoxyphenyl)-4-[4-(morpholin-4-yl)piperidin-1-yl]-1H-pyrazolo[3,4-b]pyridine-6-carboxylic acid], on ΔF508-CFTR [1], the “% Activation” value is 531.4% and the EC50 – broadly, the concentration needed to bring the measured effect to its halfway point – came to 163 nM. In addition, at ΔF508-CFTR [2] (setting [3]), the “% Activation” value came out at 326.3% and the concentration for a half-maximal effect (EC50) was 1150 nM.

Regarding `Cc1ccc(-n2nc(C3CCC3)c3c(-c4ccc(N5CCOCC5)cc4)cc(C(=O)O)nc32)cc1F` [compound 355, 3-cyclobutyl-1-(3-fluoro-4-methylphenyl)-4-[4-(morpholin-4-yl)phenyl]-1H-pyrazolo[3,4-b]pyridine-6-carboxylic acid], the “% Activation” value on ΔF508-CFTR [1] came out at 360.63%; at ΔF508-CFTR [2] (setting [4]), 180.03%. The EC50 at ΔF508-CFTR [1] is 556 nM; on ΔF508-CFTR [2] (setting [5]), 740 nM.

As for `CC(C)c1nn(C2CCCCC2)c2nc(C(=O)O)cc(-c3ccc(N4CCC(C)(C#N)CC4)nc3)c12` [compound 203, 4-[6-(4-cyano-4-methylpiperidin-1-yl)pyridin-3-yl]-1-cyclohexyl-3-(propan-2-yl)-1H-pyrazolo[3,4-b]pyridine-6-carboxylic acid], the “% Activation” value was 361.75% on ΔF508-CFTR [1] and 162.5% at ΔF508-CFTR [2] (setting [4]). In addition, the EC50 at ΔF508-CFTR [1] was 756 nM; at ΔF508-CFTR [2] (setting [5]), 843 nM.

Consider `N#CC1CN(C2CCN(c3cc(C(=O)O)nc4c3c(C3CCC3)nn4-c3ccc(F)cc3)CC2)C1` [compound 847, 4-[4-(3-cyanoazetidin-1-yl)piperidin-1-yl]-3-cyclobutyl-1-(4-fluorophenyl)-1H-pyrazolo[3,4-b]pyridine-6-carboxylic acid], for which the entries for the “% Activation” value on ΔF508-CFTR [1] and on ΔF508-CFTR [2] (setting [6]) were 503.8% and 279.1%, respectively. Moreover, the 50% effective concentration (EC50) was determined as 286 nM at ΔF508-CFTR [1] and 539 nM on ΔF508-CFTR [2] (setting [6]).

Consider `O=C(O)c1cc(N2CCC(F)(F)CC2)c2c(C3CCC3)nn(-c3ccccc3)c2n1` [compound 594, 3-cyclobutyl-4-(4,4-difluoropiperidin-1-yl)-1-phenyl-1H-pyrazolo[3,4-b]pyridine-6-carboxylic acid], for which the “% Activation” value amounted to 269.8% on ΔF508-CFTR [1] and 75.66% on ΔF508-CFTR [2] (setting [6]). Moreover, the half-maximal effective concentration (EC50) on ΔF508-CFTR [1] is 621 nM; on ΔF508-CFTR [2] (setting [6]), 787 nM.

In the case of `CC(C)c1nn(-c2ccc(F)cc2F)c2nc(C(=O)O)cc(-c3ccc(N4CCC(C#N)CC4)nc3)c12` [compound 326, 4-[6-(4-cyanopiperidin-1-yl)pyridin-3-yl]-1-(2,4-difluorophenyl)-3-(propan-2-yl)-1H-pyrazolo[3,4-b]pyridine-6-carboxylic acid], the figures for the “% Activation” value at ΔF508-CFTR [1] and on ΔF508-CFTR [2] (setting [4]) were 360.83% and 180.53%, respectively. The concentration for a half-maximal effect (EC50) on ΔF508-CFTR [1] turned out to be 574 nM; on ΔF508-CFTR [2] (setting [5]), 977 nM.

For the compound `O=C(O)c1cc(N2CCC(F)CC2)c2c(C3CCC3)nn(-c3ccccc3)c2n1` [compound 444, 3-cyclobutyl-4-(4-fluoropiperidin-1-yl)-1-phenyl-1H-pyrazolo[3,4-b]pyridine-6-carboxylic acid], on ΔF508-CFTR [1], the “% Activation” value is given as 282.8% and the half-maximal effective concentration (EC50) worked out at 543 nM. At ΔF508-CFTR [2] (setting [6]), the “% Activation” value is given as 111.15% and the EC50 was determined as 1110 nM.

`O=C(O)c1cc(OC2CCCCCC2)c2c(C3CCC3)nn(-c3ccccc3)c2n1` [compound 648, 3-cyclobutyl-4-(cycloheptyloxy)-1-phenyl-1H-pyrazolo[3,4-b]pyridine-6-carboxylic acid]: the “% Activation” value at ΔF508-CFTR [1] amounted to 296.1%; at ΔF508-CFTR [2] (setting [6]), 90.745%. Also, the EC50 at ΔF508-CFTR [1] worked out at 203 nM; at ΔF508-CFTR [2] (setting [6]) it was 263 nM.

For `O=C(O)c1cc(N2CC(F)(F)C2)c2c(C3CCC3)nn(-c3ccccc3)c2n1` [compound 528, 3-cyclobutyl-4-(3,3-difluoroazetidin-1-yl)-1-phenyl-1H-pyrazolo[3,4-b]pyridine-6-carboxylic acid], the “% Activation” value on ΔF508-CFTR [1] was found to be 209.2%; at ΔF508-CFTR [2] (setting [6]), 80.74%. Besides, the EC50 on ΔF508-CFTR [1] was found to be 1940 nM; at ΔF508-CFTR [2] (setting [6]), 3330 nM.

Take `O=C(O)c1cc(N2CC3(CCOCC3)C2)c2c(C3CCC3)nn(-c3ccccc3)c2n1` [compound 425, 3-cyclobutyl-4-(7-oxa-2-azaspiro[3.5]nonan-2-yl)-1-phenyl-1H-pyrazolo[3,4-b]pyridine-6-carboxylic acid]: at ΔF508-CFTR [1], the “% Activation” value was 262.45% and the half-maximal effective concentration (EC50) is 349 nM. At ΔF508-CFTR [2] (setting [6]), the “% Activation” value was 123.35% and the EC50 was found to be 990 nM.

On to `Cc1nn(-c2ccccc2)c2nc(C(=O)O)cc(OCC3(C)COC3)c12` [compound 375, 3-methyl-4-[(3-methyloxetan-3-yl)methoxy]-1-phenyl-1H-pyrazolo[3,4-b]pyridine-6-carboxylic acid], for which the “% Activation” value amounted to 184.1% on ΔF508-CFTR [1] and 36.645% at ΔF508-CFTR [2] (setting [4]). The EC50 at ΔF508-CFTR [1] came out at 1670 nM; on ΔF508-CFTR [2] (setting [5]) it was 3340 nM.

With `O=C(O)c1cc(OC2CCCCCCC2)c2c(C3CCC3)nn(-c3ccccc3)c2n1` [compound 649, 3-cyclobutyl-4-(cyclooctyloxy)-1-phenyl-1H-pyrazolo[3,4-b]pyridine-6-carboxylic acid], the “% Activation” value on ΔF508-CFTR [1] is 314.65%; at ΔF508-CFTR [2] (setting [6]), 107.6%. Further, the EC50 at ΔF508-CFTR [1] worked out at 225 nM; on ΔF508-CFTR [2] (setting [6]) it was 432 nM.

As to `CO[C@H]1CC[C@@H](Oc2cc(C(=O)O)nc3c2c(C2CCC2)nn3-c2ccccc2)CC1` [compound 428, 3-cyclobutyl-4-[(cis-4-methoxycyclohexyl)oxy]-1-phenyl-1H-pyrazolo[3,4-b]pyridine-6-carboxylic acid], at ΔF508-CFTR [1], the “% Activation” value came to 296% and the EC50 was 380 nM. On ΔF508-CFTR [2] (setting [6]), the “% Activation” value is 128.05% and the EC50 was determined as 978 nM.

As for `Cc1nn(-c2ccccc2)c2nc(C(=O)O)cc(N3CCCN(S(C)(=O)=O)CC3)c12` [compound 320, 4-[4-(methanesulfonyl)-1,4-diazepan-1-yl]-3-methyl-1-phenyl-1H-pyrazolo[3,4-b]pyridine-6-carboxylic acid], the “% Activation” value on ΔF508-CFTR [1] came to 166.3%; at ΔF508-CFTR [2] (setting [4]), 19.37%. The concentration for a half-maximal effect (EC50) on ΔF508-CFTR [1] is 3340 nM; at ΔF508-CFTR [2] (setting [5]) it was over 10000 nM.

In the case of `CC(C)c1nn([C@@H]2CCC[C@@H](OCc3ccccc3)C2)c2nc(C(=O)O)cc(-c3ccc(N4CCOCC4)cc3)c12` [compound 163, 1-[(1R,3R)-3-(benzyloxy)cyclohexyl]-4-[4-(morpholin-4-yl)phenyl]-3-(propan-2-yl)-1H-pyrazolo[3,4-b]pyridine-6-carboxylic acid], the “% Activation” value on ΔF508-CFTR [1] is listed as 554.5%; on ΔF508-CFTR [2] (setting [4]) it was 232.43%. In addition, the results for the EC50 at ΔF508-CFTR [1] and at ΔF508-CFTR [2] (setting [5]) were 423 nM and 525 nM, respectively.

Regarding `O=C(O)c1cc(N2CC3(CCCCC3)C2)c2c(C3CCC3)nn(-c3ccccc3)c2n1` [compound 409, 4-(2-azaspiro[3.5]nonan-2-yl)-3-cyclobutyl-1-phenyl-1H-pyrazolo[3,4-b]pyridine-6-carboxylic acid], on ΔF508-CFTR [1], the “% Activation” value was 249.3% and the EC50 came to 1110 nM. Further, at ΔF508-CFTR [2] (setting [6]), the “% Activation” value was determined as 75.39% and the concentration giving a half-maximal response (EC50) is 1070 nM.

As for `CC(C)c1nn(-c2ccc(F)cc2)c2nc(C(=O)O)cc(N3CCC(C4CCN(C)CC4)CC3)c12` [compound 661, 1-(4-fluorophenyl)-4-(1′-methyl [4,4′-bipiperidin]-1-yl)-3-(propan-2-yl)-1H-pyrazolo[3,4-b]pyridine-6-carboxylic acid], on ΔF508-CFTR [1], the “% Activation” value amounted to 522.3% and the EC50 is 227 nM. At ΔF508-CFTR [2] (setting [6]), the “% Activation” value was 315% and the EC50 was found to be 565 nM.

As for `O=C(O)c1cc(OCCC2CCCCC2)c2c(C3CCC3)nn(-c3ccccc3)c2n1` [compound 633, 3-cyclobutyl-4-(2-cyclohexylethoxy)-1-phenyl-1H-pyrazolo[3,4-b]pyridine-6-carboxylic acid], the “% Activation” value at ΔF508-CFTR [1] is listed as 279.27%; at ΔF508-CFTR [2] (setting [6]), 66.87%. The EC50 came out at 714 nM on ΔF508-CFTR [1] and 666 nM at ΔF508-CFTR [2] (setting [6]).

With `CC(C)(C)OC(=O)N1CCC(Oc2nn(-c3ccccc3)c3nc(C(=O)O)cc(-c4ccc(N5CCC(C#N)CC5)nc4)c23)C1` (centres unmarked) [compound 552, 3-{[1-(tert-butoxycarbonyl)pyrrolidin-3-yl]oxy}-4-[6-(4-cyanopiperidin-1-yl)pyridin-3-yl]-1-phenyl-1H-pyrazolo[3,4-b]pyridine-6-carboxylic acid], at ΔF508-CFTR [1], the “% Activation” value was 396.65% and the EC50 came to 396 nM. On ΔF508-CFTR [2] (setting [6]), the “% Activation” value amounted to 156.1% and the EC50 turned out to be 370 nM.

Take `CC(=O)N1CCN(c2cc(C(=O)O)nc3c2c(C(C)C)nn3-c2ccc(F)cc2)CC1` [compound 771, 4-(4-acetylpiperazin-1-yl)-1-(4-fluorophenyl)-3-(propan-2-yl)-1H-pyrazolo[3,4-b]pyridine-6-carboxylic acid]: at ΔF508-CFTR [1], the “% Activation” value turned out to be 290.8% and the EC50 was 1670 nM. For the same compound, on ΔF508-CFTR [2] (setting [6]), the “% Activation” value is 94.91% and the EC50 is 1670 nM.
